Results on 19 compounds are retold here after publication PMC4113800 (Marine Drugs, 2014).

The nature of data set [1]: MTT cytotoxicity assay, parental SW620 cells. The data set is classed as cell-based. To be noted: human. The method, then: (§1) The MTT assay was modified based on that previously described, using adherent cell lines SW620 and NCI-H460, and their P-gp over-expressing daughter cell line SW620 Ad300 and BCRP over-expressing daughter cell line NCI-H460/MX20, respectively. Briefly, cells were harvested with trypsin and added into 96-well microtitre assay plates at 2000 cells/well, followed by 18 h incubation at 37 °C with 5% CO2. […] Control wells were treated with 5% aqueous DMSO. […] 68 h later, 20 μL MTT (4 mg/mL in PBS) was dispensed into each well (final concentration 0.40 mg/mL), and plates were incubated for a further 4 h at 37 °C with 5% CO2. Finally medium was removed and precipitated formazan crystals were dissolved in 100% DMSO. The absorbance of each well was measured at 580 nm with a PowerWave XS Microplate Reader from Bio-Tek Instruments Inc. (Vinooski, VT, USA).
(§2) All experiments were performed in duplicate.
On the technique in general: Tetrazolium dyes change colour on reduction, which living cells bring about.

A short description of data set [2]: MTT cytotoxicity assay, P-gp over-expressing SW620 Ad300 cells. The data set is classed as cell-based. To be noted: human. How it is done:
as §1, §2

Data set [3] addresses T1, P-gp (Homo sapiens, UniProt P08183).
T1 construct: The drug-resistant P-gp over-expressing daughter cell line SW620 Ad300 was established by stepwise selection; endogenous in cells; host or cells: SW620 Ad300 (human colon cancer, doxorubicin-selected)
The data set is classed as cell-based. To be noted: compound or verapamil 20 μM vs PBS; calcein AM […]; SW620 Ad300. The method, then:
(§3) Flow cytometry based assays were used to measure the ability of natural or synthetic compounds to inhibit P-gp, BCRP or MRP1 mediated accumulation and/or efflux of fluorescent reagents. […] For the calcein AM accumulation assays, cells were directly analyzed by flow cytometry.
(§4) Intracellular fluorescence intensity was measured on a BD FACSCanto™ II flow cytometer (Becton Dickinson, San Jose, CA, USA) and data were analyzed through FlowJo (Tree Star, Inc., Ashland, OR, USA). […] Mitoxantrone fluorescence was detected with a 638 nm […] laser and a 660/20 nm band-pass filter. At least 10,000 events were collected for all of the flow cytometry experiment. By increasing threshold value on forward scatter versus side scatter, debris was eliminated. Dead cells were excluded based on propidium iodide staining. Data are means ± SEM of at least three independent experiments performed in duplicate.

In data set [4] the target is T2, BCRP (Homo sapiens, UniProt Q9UNQ0).
T2 sequence (Q9UNQ0 1-655): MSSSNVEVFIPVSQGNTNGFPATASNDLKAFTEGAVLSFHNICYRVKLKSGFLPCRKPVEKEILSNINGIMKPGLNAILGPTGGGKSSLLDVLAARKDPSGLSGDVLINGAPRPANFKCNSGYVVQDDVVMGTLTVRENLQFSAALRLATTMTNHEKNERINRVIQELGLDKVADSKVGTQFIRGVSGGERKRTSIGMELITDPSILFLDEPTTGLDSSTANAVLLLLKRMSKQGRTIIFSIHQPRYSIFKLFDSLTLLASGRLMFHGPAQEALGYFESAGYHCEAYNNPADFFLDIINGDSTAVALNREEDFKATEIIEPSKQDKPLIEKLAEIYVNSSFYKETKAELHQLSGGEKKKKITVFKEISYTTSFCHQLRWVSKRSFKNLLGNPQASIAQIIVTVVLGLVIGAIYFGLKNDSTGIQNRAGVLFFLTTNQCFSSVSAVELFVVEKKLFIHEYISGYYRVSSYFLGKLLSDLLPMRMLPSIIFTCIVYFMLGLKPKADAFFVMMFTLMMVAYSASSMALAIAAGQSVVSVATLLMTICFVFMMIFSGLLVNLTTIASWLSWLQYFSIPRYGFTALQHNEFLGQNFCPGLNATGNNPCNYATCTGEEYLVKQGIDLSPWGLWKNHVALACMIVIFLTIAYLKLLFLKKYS
Description: cell-based. The note with it: for FAR (fluorescence arbitrary ratio), mitoxantrone fluorescence: compound 20 μM vs PBS; for FAR (fluorescence arbitrary ratio), mitoxantrone fluorescence / % FTC (inhibition of mitoxantrone efflux normalized to 10 μM FTC): NCI-H460/MX20; for % FTC (inhibition of mitoxantrone efflux normalized to 10 μM FTC): compound 20 μM. How it is done:
as §3, §4

Data set [5] concerns SW620 Ad300 cells. Put plainly: Reversal of P-gp mediated doxorubicin resistance (MTT assay). The data set is classed as cell-based, human. How it is done: as §1, §2
For data set [6], the system named is NCI-H460 cells. Description: [3H]-mitoxantrone accumulation and efflux in parental NCI-H460 cells. The data set is classed as cell-based, human. To be noted: 11 at 10 or 30 μM, FTC 5.0 μM. The text has this:
[…]. […] […]
Wherever FAR (fluorescence arbitrary ratio), intracellular calcein fluorescence is given: calcein AM 0.25 µM.

T1 sequence (P08183 whole entry): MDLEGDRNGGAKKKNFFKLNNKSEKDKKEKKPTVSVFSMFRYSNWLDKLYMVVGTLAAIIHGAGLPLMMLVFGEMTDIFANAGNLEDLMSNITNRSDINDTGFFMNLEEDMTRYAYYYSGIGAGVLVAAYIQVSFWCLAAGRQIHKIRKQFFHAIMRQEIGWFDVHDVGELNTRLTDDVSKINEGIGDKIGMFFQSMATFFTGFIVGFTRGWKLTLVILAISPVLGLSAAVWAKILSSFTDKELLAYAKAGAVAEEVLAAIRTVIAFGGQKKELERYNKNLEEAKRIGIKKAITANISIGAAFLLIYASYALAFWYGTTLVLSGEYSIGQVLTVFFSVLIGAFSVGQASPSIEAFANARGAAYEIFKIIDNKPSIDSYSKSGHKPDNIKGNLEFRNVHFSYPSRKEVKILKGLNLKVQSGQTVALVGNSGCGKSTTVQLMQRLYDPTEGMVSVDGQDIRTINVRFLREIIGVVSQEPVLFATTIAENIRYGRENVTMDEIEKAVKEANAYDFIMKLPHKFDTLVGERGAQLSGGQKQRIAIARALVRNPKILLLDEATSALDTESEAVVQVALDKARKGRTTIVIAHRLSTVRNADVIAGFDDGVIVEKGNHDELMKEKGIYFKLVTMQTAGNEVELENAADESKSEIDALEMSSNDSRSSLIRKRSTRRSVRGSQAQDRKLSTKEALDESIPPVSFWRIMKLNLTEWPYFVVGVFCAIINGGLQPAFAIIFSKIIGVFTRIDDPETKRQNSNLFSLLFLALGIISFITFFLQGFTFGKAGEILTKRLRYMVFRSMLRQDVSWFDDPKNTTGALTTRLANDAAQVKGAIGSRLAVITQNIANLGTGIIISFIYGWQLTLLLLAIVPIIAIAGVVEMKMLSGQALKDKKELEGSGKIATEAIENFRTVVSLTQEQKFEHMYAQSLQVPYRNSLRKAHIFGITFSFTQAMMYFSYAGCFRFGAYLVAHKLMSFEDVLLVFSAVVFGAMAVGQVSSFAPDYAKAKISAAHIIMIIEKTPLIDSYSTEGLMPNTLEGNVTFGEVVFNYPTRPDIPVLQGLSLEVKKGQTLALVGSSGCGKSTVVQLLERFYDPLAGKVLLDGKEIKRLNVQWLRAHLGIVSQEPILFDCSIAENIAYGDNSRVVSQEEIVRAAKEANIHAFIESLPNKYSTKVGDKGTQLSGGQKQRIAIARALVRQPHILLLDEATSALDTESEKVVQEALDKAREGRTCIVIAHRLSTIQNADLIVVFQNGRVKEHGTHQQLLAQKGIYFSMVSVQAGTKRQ

In general, IC50 refers to the midpoint of a concentration-inhibition curve. In the case of `CCOC1(C(=O)OC)NC(=O)C(c2ccc(O)cc2)=C1c1ccc(O)cc1` (stereo not shown) [Compound 2, ianthellidone B], the IC50 at 68 h in data set [1] was more than 30 µM. Moreover, the IC50 at 68 h in data set [2] is more than 30 µM. For the same compound, in data set [3], the “FAR (fluorescence arbitrary ratio), intracellular calcein fluorescence” value is on record as 0.52 fold. For the same compound, in data set [4], the “FAR (fluorescence arbitrary ratio), mitoxantrone fluorescence” value is reported as 1.07 fold and the “% FTC (inhibition of mitoxantrone efflux normalized to 10 μM FTC)” value is 3.13 % FTC.
With `COC(=O)c1c(Br)c(Br)c(Br)n1CC(=O)c1ccc(OC)cc1` [Compound 16], in data set [4], the “FAR (fluorescence arbitrary ratio), mitoxantrone fluorescence” value is 1.20 fold and the “% FTC (inhibition of mitoxantrone efflux normalized to 10 μM FTC)” value worked out at 5.45 % FTC.
As for `COC(=O)c1c(-c2ccc(O)cc2)c(-c2ccc(O)cc2)cn1CC(O)c1ccc(O)cc1` (stereo not shown) [Compound 10, lamellarin O2], the IC50 at 68 h in data set [1] is more than 30 µM. For the same compound, the IC50 at 68 h in data set [2] is more than 30 µM. In addition, in data set [3], the “FAR (fluorescence arbitrary ratio), intracellular calcein fluorescence” value is reported as 0.60 fold. In data set [4], the “FAR (fluorescence arbitrary ratio), mitoxantrone fluorescence” value was 1.11 fold and the “% FTC (inhibition of mitoxantrone efflux normalized to 10 μM FTC)” value came to 5.13 % FTC.
In the case of `COC(=O)C1(O)OC(=O)C(c2ccc(O)cc2)=C1c1ccc(O)cc1` (stereo not shown) [Compound 7, ianthellidone G], in data set [1], the IC50 at 68 h is more than 30 µM. Besides, in data set [2], the IC50 at 68 h is more than 30 µM. Also, the “FAR (fluorescence arbitrary ratio), intracellular calcein fluorescence” value in data set [3] is 0.67 fold. Moreover, in data set [4], the “FAR (fluorescence arbitrary ratio), mitoxantrone fluorescence” value was found to be 1.09 fold and the “% FTC (inhibition of mitoxantrone efflux normalized to 10 μM FTC)” value is on record as 4.06 % FTC.
Regarding `COc1ccc(CCN(C)CCCC(C#N)(c2ccc(OC)c(OC)c2)C(C)C)cc1OC` (stereo not shown) [verapamil, reference compound], the “DMF (dose-modifying factor), increase in sensitivity towards doxorubicin” value in data set [5] (verapamil […]) is reported as 8.8 fold.
On to `COC(=O)c1c(-c2ccc(O)cc2)c(-c2ccc(O)cc2)cn1CC(=O)c1ccc(OC)cc1` [Compound 11, lamellarin O], for which the IC50 at 68 h stood at 22 µM in data set [1] and 22.3 µM in data set [2]. Moreover, the “DMF (dose-modifying factor), increase in sensitivity towards doxorubicin” value in data set [5] (lamellarin O (11) 5.0 μM) turned out to be 1.5 fold; in data set [5] (lamellarin O (11) 10 μM) it was 3.1 fold; in data set [5] (lamellarin O (11) […] μM), 4.8 fold. Also, in data set [6], the “effect on intracellular [3H]-mitoxantrone levels, accumulation phase” value is “neither 11 (10 or 30 μM) nor FTC (5.0 μM) significantly changed intracellular [^3H]-mitoxantrone levels”. Further, in data set [6], the “effect on intracellular [3H]-mitoxantrone levels, efflux phase” value was “Neither 11 nor FTC had a significant effect”.
In data set [4], `COC(=O)c1c(-c2ccc(OC)cc2)c(-c2ccc(OC)cc2)cn1CC(=O)c1ccc(OC)cc1` [Compound 19, 4′,4″-dimethyl-lamellarin O] registered an IC50 of more than 100 µM.
`COC(=O)C1(O)NC(=O)C(c2ccc(O)cc2)=C1c1ccc(O)cc1` (stereo not shown) [Compound 1, ianthellidone A]: the IC50 at 68 h in data set [1] is more than 30 µM. Also, the IC50 at 68 h in data set [2] was more than 30 µM. In addition, the “FAR (fluorescence arbitrary ratio), intracellular calcein fluorescence” value in data set [3] is reported as 0.63 fold. For the same compound, in data set [4], the “FAR (fluorescence arbitrary ratio), mitoxantrone fluorescence” value was found to be 0.97 fold and the “% FTC (inhibition of mitoxantrone efflux normalized to 10 μM FTC)” value was less than 1.00 % FTC.
Take `CCOCN1C(=O)C(c2ccc(O)cc2)=C(c2ccc(O)cc2)C1(O)C(=O)OC` (stereo not shown) [Compound 4, ianthellidone D]: the IC50 at 68 h in data set [1] is more than 30 µM. Further, the IC50 at 68 h in data set [2] is more than 30 µM. Also, the “FAR (fluorescence arbitrary ratio), intracellular calcein fluorescence” value in data set [3] is listed as 0.60 fold. Besides, in data set [4], the “FAR (fluorescence arbitrary ratio), mitoxantrone fluorescence” value is 1.15 fold and the “% FTC (inhibition of mitoxantrone efflux normalized to 10 μM FTC)” value is on record as 6.66 % FTC.
For `COC(=O)c1ccc(Br)n1CC(=O)c1ccc(OC)cc1` [Compound 15], in data set [4], the “FAR (fluorescence arbitrary ratio), mitoxantrone fluorescence” value is reported as 0.97 fold and the “% FTC (inhibition of mitoxantrone efflux normalized to 10 μM FTC)” value is listed as less than 1.00 % FTC.
For `COC(=O)C1(O)C(c2ccc(O)cc2)=C(c2ccc(O)cc2)C(=O)N1CC(=O)c1ccc(OC)cc1` (stereo not shown) [Compound 6, ianthellidone F], in data set [1], the IC50 at 68 h was more than 30 µM. In data set [2], this compound yielded an IC50 at 68 h of more than 30 µM. In data set [3], the “FAR (fluorescence arbitrary ratio), intracellular calcein fluorescence” value is 0.61 fold. Besides, in data set [4], the “FAR (fluorescence arbitrary ratio), mitoxantrone fluorescence” value turned out to be 1.21 fold and the “% FTC (inhibition of mitoxantrone efflux normalized to 10 μM FTC)” value is 9.79 % FTC.
For `COC(=O)c1[nH]cc(-c2ccc(O)cc2)c1-c1ccc(O)cc1` [Compound 12, lamellarin Q], the IC50 at 68 h in data set [1] was more than 30 µM. The IC50 at 68 h in data set [2] was more than 30 µM. Besides, in data set [3], the “FAR (fluorescence arbitrary ratio), intracellular calcein fluorescence” value is reported as 0.54 fold. For the same compound, in data set [4], the “FAR (fluorescence arbitrary ratio), mitoxantrone fluorescence” value was 1.41 fold and the “% FTC (inhibition of mitoxantrone efflux normalized to 10 μM FTC)” value was 18.6 % FTC.
Take `COC(=O)c1cccn1CC(=O)c1ccc(OC)cc1` [Compound 13]: in data set [4], the “FAR (fluorescence arbitrary ratio), mitoxantrone fluorescence” value was determined as 1.00 fold and the “% FTC (inhibition of mitoxantrone efflux normalized to 10 μM FTC)” value is on record as less than 1.00 % FTC.
Turning to `COC(=O)C1(OC)OC(=O)C(c2ccc(O)cc2)=C1c1ccc(O)cc1` (stereo not shown) [Compound 8, ianthellidone H], the half-maximal inhibitory concentration (IC50) at 68 h in data set [1] was more than 30 µM. In data set [2], the IC50 at 68 h was more than 30 µM. In addition, the “FAR (fluorescence arbitrary ratio), intracellular calcein fluorescence” value in data set [3] is reported as 0.60 fold. In data set [4], the “FAR (fluorescence arbitrary ratio), mitoxantrone fluorescence” value amounted to 1.13 fold and the “% FTC (inhibition of mitoxantrone efflux normalized to 10 μM FTC)” value turned out to be 6.06 % FTC.
As to `CCOC(=O)CN1C(=O)C(c2ccc(O)cc2)=C(c2ccc(O)cc2)C1(O)C(=O)OC` (stereo not shown) [Compound 5, ianthellidone E], the IC50 at 68 h in data set [1] and in data set [2] was more than 30 µM each time. In addition, the “FAR (fluorescence arbitrary ratio), intracellular calcein fluorescence” value in data set [3] is 0.59 fold. Moreover, in data set [4], the “FAR (fluorescence arbitrary ratio), mitoxantrone fluorescence” value was 1.14 fold. Also, the “% FTC (inhibition of mitoxantrone efflux normalized to 10 μM FTC)” value in data set [4] came to 6.20 % FTC.
`COC(=O)c1cc(Br)cn1CC(=O)c1ccc(OC)cc1` [Compound 14]: in data set [4], the “FAR (fluorescence arbitrary ratio), mitoxantrone fluorescence” value is 1.03 fold and the “% FTC (inhibition of mitoxantrone efflux normalized to 10 μM FTC)” value is listed as less than 1.00 % FTC.
For the compound `COC(=O)c1c(-c2ccc(O)cc2)c(-c2ccc(O)cc2)cn1CC(=O)c1ccc(O)cc1` [Compound 9, lamellarin O1], the IC50 at 68 h in data set [1] and in data set [2] was more than 30 µM in each case. Also, the “FAR (fluorescence arbitrary ratio), intracellular calcein fluorescence” value in data set [3] was 0.61 fold. For the same compound, in data set [4], the “FAR (fluorescence arbitrary ratio), mitoxantrone fluorescence” value worked out at 1.23 fold. Further, the “% FTC (inhibition of mitoxantrone efflux normalized to 10 μM FTC)” value in data set [4] was 10.6 % FTC.
`COCN1C(=O)C(c2ccc(O)cc2)=C(c2ccc(O)cc2)C1(O)C(=O)OC` (stereo not shown) [Compound 3, ianthellidone C]: the IC50 at 68 h in data set [1] was more than 30 µM. In data set [2], this compound registered an IC50 at 68 h of more than 30 µM. In data set [3], the “FAR (fluorescence arbitrary ratio), intracellular calcein fluorescence” value is 0.61 fold. Moreover, in data set [4], the “FAR (fluorescence arbitrary ratio), mitoxantrone fluorescence” value is on record as 1.12 fold and the “% FTC (inhibition of mitoxantrone efflux normalized to 10 μM FTC)” value was 5.60 % FTC.
On to `COc1cccc2c1C(=O)c1c(O)c3c(c(O)c1C2=O)C[C@@](O)(C(=O)CO)C[C@@H]3O[C@H]1C[C@H](N)[C@H](O)[C@H](C)O1` [doxorubicin, reference compound], for which the IC50 in data set [5] (Homo sapiens, doxorubicin alone) amounted to 4.44 ± 0.21 µM.
